Assay results from patent publication US20240116985A1, “STAPLED PEPTIDES AND METHODS THEREOF” (priority 2020, published 2024).
Like-named read-outs stand apart in the source and are kept apart here.

How the values were obtained:
[1] = target: T1, full-length beta-Catenin (Uniprot ID P35222) (Homo sapiens, UniProt P35222); test: Fluorescence polarization IC50 (beta-catenin / 5FAM-TCF4 10-53 competition); format: binding; conditions: fluorescence polarization; read-out: beta-Catenin FP IC50
T1 construct: 10 nM full-length beta-Catenin (Uniprot ID P35222)
T1 sequence (P35222 1-781): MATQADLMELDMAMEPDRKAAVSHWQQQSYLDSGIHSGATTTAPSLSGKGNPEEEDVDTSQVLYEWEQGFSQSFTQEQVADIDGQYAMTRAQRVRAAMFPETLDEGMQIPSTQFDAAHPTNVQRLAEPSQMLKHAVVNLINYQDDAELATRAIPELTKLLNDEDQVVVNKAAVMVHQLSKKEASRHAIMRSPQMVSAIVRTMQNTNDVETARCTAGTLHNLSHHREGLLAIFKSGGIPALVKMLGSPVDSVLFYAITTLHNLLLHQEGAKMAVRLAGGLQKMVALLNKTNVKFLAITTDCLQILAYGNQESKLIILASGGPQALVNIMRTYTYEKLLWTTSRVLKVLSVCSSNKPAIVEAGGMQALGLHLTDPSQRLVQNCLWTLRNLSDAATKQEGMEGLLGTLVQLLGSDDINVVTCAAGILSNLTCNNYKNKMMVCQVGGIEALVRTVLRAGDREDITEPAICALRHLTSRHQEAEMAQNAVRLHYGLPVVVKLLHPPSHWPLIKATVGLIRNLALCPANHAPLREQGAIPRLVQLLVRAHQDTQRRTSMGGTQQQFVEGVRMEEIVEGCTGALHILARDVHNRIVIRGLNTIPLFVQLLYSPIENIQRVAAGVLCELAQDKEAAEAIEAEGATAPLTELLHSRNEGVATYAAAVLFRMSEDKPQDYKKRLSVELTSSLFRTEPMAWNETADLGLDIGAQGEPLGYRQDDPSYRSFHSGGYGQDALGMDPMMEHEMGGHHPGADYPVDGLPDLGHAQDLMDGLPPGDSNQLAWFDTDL

[2] = tested on: TCF/LEF luciferase Reporter in DLD1 cells; test: TCF reporter assay (DLD1 TCF/LEF luciferase reporter, Bright-Glo); format: cell-based; conditions: absolute IC50
Source text: Those skilled in the art will appreciate that other suitable reagents may be utilized and various parameters may be adjusted.
DLD1 reporter cell line was generated by using TCF/LEF luciferase Reporter Lentivirus (BPS Bioscience Catalog #79787). Parental DLD1 cells (ATCC@ CCL-221) were transfected with the lentivirus and followed by 3-day puromycin selection. Single clone was selected for Reporter assay.
On Day 1, cultured cells in flasks that are no more than about 60-70% confluent were washed with PBS and typsinized in 3 mL/T75 until cells were free floating. Spin down cells for 5 minutes at 1100RPM. While cells spin, determine the number of plates (3 compounds per plate) needed. After spinning, aspirate the supernatant gently and add 10 mL media (RPMI+4% FBS), and re-suspend and mix the cells gently. Count the cells twice in the cell counter Countess and take average of both the counts, and determine how many cells are needed. After plating cells at 5000 cells/well, seal with aerseal film. 90 uL cells/well. Incubate at 37° C. overnight, tap gently to mix and don't stack plates.
On Day 2, compounds were added. Stock solution was 10 mM. Make the DMSO containing media by adding 36 uL DMSO to 10 mL of media. Make the dilution wells by transferring 100 uL DMSO+Media into rows B-F of a protein LoBind 96-well plate. Row G is empty. Add any extra DMSO+media to row H. Transfer 4 uL of stock solution to Row A. One compound per column. Add 196 uL media to Row A, no DMSO in the media. Concentration of Row A was 200 uM. Mix well and do a 6 pt, 1:2 serial dilution, mix ×10 per transfer and change tips before each transfer. Removed excess volume from final well (row F) and discard. Transfer 10 uL of the compound containing media to cells with a multichannel according to plate maps. Add 60 uL DMSO containing media to the DMSO wells. The edge wells were typically not used in the assay and could be ignored if needed or replaced with PBS, but there typically were liquids in the wells. Cover plates with breathable plate sealer and incubate overnight.
A 96-well plate may be utilized to prepare dilution series for up to 12 compounds, each with several concentrations (e.g., 200, 100, 50, 25, 12.5, 6.25 and 0 uM; can be utilized as 100× depending on final test concentrations).
0 uM is the DMSO control for the whole plate. Edge well filled with 90 uL cells+10 uL DMSO containing media.
On Day 3, luciferase levels were assessed using Bright-Glo (Promega). Equilibrate Bright-Glo to room temperature before addition. 7 mL of mixed Bright-Gbo per plate. Unused Bright-Glo could be store at −80° C. Reconstituted reagent can be stored for up to 1 month at −80° C., or after one freeze-thaw. When ready to read, remove plates from incubator and let sit at room temperature for 15 minutes. Typically stagger taking out plates if reading multiple plates before adding the Bright-Glo. Add 90 uL/well Bright-Glo and shake gently for 3 minutes. Read luminescence on GloMax immediately using ‘BrightGlo’ programs.
Cellular activity was assessed using CTG. Equilibrate CTG reagents to room temperature. Equilibrate plates to room temp, e.g. 15 min. Use same time length for all plates. Add CTG reagent, 25 uL if using undiluted, or 90 uL if diluted 1 to 4. Shake for 2 min to induce cell lysis. Allow plate to incubate at RT for 10 min to stabilize lumine sent signal. Read luminesence using program ‘CellTiter-Glo’. Use Prism to find the Absolute IC50 (AbsIC50=X[50]) of each compound.

[3] = target: T2, beta-catenin/TCF4 engagement (Homo sapiens, UniProt P35222); test: Nano-BRET target engagement assay (B-cat-Halo & TCF4-Luc in HEK293 cells); format: cell-based; conditions: absolute IC50; read-out: NanoBRET Abs IC50
T2 construct: expressed in transfected cells; host or cells: HEK293
T2 sequence (P35222 1-781): T1 sequence (P35222 1-781)

[4] = read-out: DLD1 4% Abs IC50, DLD1 reporter, 4%

SMILES	IC50 [1] [nM]	IC50 [2, 4] [nM]	IC50 [3] [nM]	IC50 ([2]; read-out: DLD1 reporter assay Abs IC50) [nM]
CC(=O)N1CCC[C@]12CC=CCCCC1(CCCC=CCCCOC(=O)N3CC[C@@](C(=O)N[C@@H](Cc4ccsc4)C(=O)N[C@@H](Cc4csc5ccccc45)C(=O)N[C@@H](CC(N)=O)C(=O)N[C@@H](CC(C)C)C(=O)N[C@@H](CC(C)C)C(=O)N[C@@H](CC(C)C)C(N)=O)(C3)NC(=O)[C@H](CC(C)C)NC(=O)[C@H](Cc3ccccc3)NC(=O)[C@H](C)NC(=O)[C@H](C)NC(=O)[C@H](Cc3cccc(C(=O)O)c3)NC(=O)[C@H](CC(=O)O)NC1=O)NC(=O)[C@H](CC(C)(C)C)NC(=O)[C@H](CC(=O)O)NC2=O (stereo partly drawn) [I-2276, Ac-PL3-Asp-Npg-B5-Asp-3COOHF-Ala-Ala-Phe-Leu-PyrS2-3Thi-BztA-Asn-Leu-Leu-Leu-NH2]	157	3900	4000	
CC(=O)N1CCC[C@]12CC=CCCCC1(CCCC=CCCCOC(=O)N3CC[C@@](C(=O)N[C@@H](Cc4ccccc4Cl)C(=O)N[C@@H](Cc4csc5ccccc45)C(=O)N[C@H](CO)CC(C)C)(C3)NC(=O)[C@H]([C@@H](C)O)NC(=O)[C@H](Cc3ccccc3)NC(=O)[C@H](C)NC(=O)[C@H](C)NC(=O)[C@H](CC(=O)O)NC(=O)[C@H](CC(=O)O)NC1=O)NC(=O)[C@H](CC(C)(C)C)NC(=O)[C@H](CC(=O)O)NC2=O (stereo partly drawn) [I-1247, Ac-PL3-Asp-Npg-B5-Asp-Asp-Ala-Ala-Phe-Thr-PyrS2-2C1F-BztA-Leuo1]	33		> 20000	> 20000

Second part, the molecule after the results:

IC50 [1] [nM]	IC50 [2, 4] [nM]	IC50 [3] [nM]	IC50 ([2]; read-out: DLD1 reporter assay Abs IC50) [nM]	SMILES
133	> 20000	> 20000		CC(=O)N1CCC[C@]12CC=CCCCC1(CCCC=CCCCOC(=O)N3CC[C@@](C(=O)N[C@@H](Cc4ccsc4)C(=O)N[C@@H](Cc4csc5ccccc45)C(=O)N[C@H](C(N)=O)[C@@H](C)O)(C3)NC(=O)[C@H](CC(N)=O)NC(=O)[C@H](Cc3ccccc3)NC(=O)[C@H](C)NC(=O)C(C)(C)NC(=O)[C@H]([C@@H](C)O)NC(=O)[C@H](CC(N)=O)NC1=O)NC(=O)[C@H](CC(C)(C)C)NC(=O)[C@H](CC(=O)O)NC2=O (stereo partly drawn) [I-2416, Ac-PL3-Asp-Npg-B5-Asn-Thr-Aib-Ala-Phe-Asn-PyrS2-3Thi-BztA-Thr-NH2]
110	700	8200		CCCC[C@H](NC(=O)[C@H](CC(C)C)NC(=O)[C@H](CCC(N)=O)NC(=O)[C@H](Cc1csc2ccccc12)NC(=O)[C@H](Cc1ccccc1C(F)(F)F)NC(=O)[C@]12CCN(C1)C(=O)OCCCC=CCCCC1(CCCC=CC[C@]3(CCCN3C(C)=O)C(=O)N[C@@H](CC(=O)O)C(=O)N[C@@H](CC(C)(C)C)C(=O)N1)C(=O)N[C@@H](CC(=O)O)C(=O)N[C@@H](Cc1cccc(C(=O)O)c1)C(=O)N[C@@H](C)C(=O)N[C@@H](C)C(=O)N[C@@H](Cc1ccccc1)C(=O)N[C@@H](CC(C)C)C(=O)N2)C(N)=O (stereo partly drawn) [I-2391, Ac-PL3-Asp-Npg-B5-Asp-3COOHF-Ala-Ala-Phe-Leu-PyrS2-2F3MeF-BztA-Gln-Leu-nLeu-NH2]
28	1200	5500		CC(=O)N1CCC[C@]12CC=CCCCC1(CCCC=CCCCOC(=O)N3CC[C@@](C(=O)N[C@@H](Cc4ccccc4C(F)(F)F)C(=O)N[C@@H](Cc4csc5ccccc45)C(=O)N[C@@H](CCC(N)=O)C(=O)N[C@@H](CC(C)C)C(=O)N[C@H](C)C(N)=O)(C3)NC(=O)[C@H](CC(C)C)NC(=O)[C@H](Cc3ccccc3)NC(=O)[C@H](C)NC(=O)[C@H](C)NC(=O)[C@H](Cc3cccc(C(=O)O)c3)NC(=O)[C@H](CC(=O)O)NC1=O)NC(=O)[C@H](CC(C)(C)C)NC(=O)[C@H](CC(=O)O)NC2=O (stereo partly drawn) [I-2395, Ac-PL3-Asp-Npg-B5-Asp-3COOHF-Ala-Ala-Phe-Leu-PyrS2-2F3MeF-BztA-Gln-Leu-dAla-NH2]
